This is an account of results in ChEMBL document CHEMBL1155902, “Nitrogen-containing flavonoid analogues as CDK1/cyclin B inhibitors: synthesis, SAR analysis, and biological activity” (Bioorg Med Chem, 2008).

Structures are written as SMILES.

Sequence of Cyclin-dependent kinase 1/cyclin B1 (P06493 whole entry): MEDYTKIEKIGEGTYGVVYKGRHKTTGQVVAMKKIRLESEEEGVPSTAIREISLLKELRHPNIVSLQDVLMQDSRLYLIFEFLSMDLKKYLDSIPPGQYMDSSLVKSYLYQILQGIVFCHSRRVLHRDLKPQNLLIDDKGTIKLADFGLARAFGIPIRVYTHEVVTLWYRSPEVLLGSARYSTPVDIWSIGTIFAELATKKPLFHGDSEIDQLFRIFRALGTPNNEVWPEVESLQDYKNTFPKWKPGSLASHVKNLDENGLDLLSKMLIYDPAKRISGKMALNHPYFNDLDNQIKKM
Sequence of Cyclin-dependent kinase 1/cyclin B1 (P14635 whole entry, further chain): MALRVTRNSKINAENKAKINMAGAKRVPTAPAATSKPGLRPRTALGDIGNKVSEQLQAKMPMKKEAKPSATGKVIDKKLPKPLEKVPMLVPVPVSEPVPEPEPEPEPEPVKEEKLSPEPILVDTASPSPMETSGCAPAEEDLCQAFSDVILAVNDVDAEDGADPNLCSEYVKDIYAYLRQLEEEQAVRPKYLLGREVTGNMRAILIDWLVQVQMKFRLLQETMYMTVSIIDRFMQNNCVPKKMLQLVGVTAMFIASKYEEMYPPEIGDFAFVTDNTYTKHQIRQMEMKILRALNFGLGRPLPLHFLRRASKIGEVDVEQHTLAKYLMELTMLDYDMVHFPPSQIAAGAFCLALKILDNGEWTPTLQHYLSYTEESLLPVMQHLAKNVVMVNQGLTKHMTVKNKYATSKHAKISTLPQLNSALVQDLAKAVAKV

This experiment concerns the target Cyclin-dependent kinase 1/cyclin B1 (Homo sapiens, UniProt P06493). Description: Inhibition of Cdk1/cyclin B. The experiment is classed as protein-complex assay.
As a reminder, the IC50 is the concentration that gives 50% inhibition. The low end stands for greater potency, the high end for weaker potency. The compound `COc1ccc(C(=O)/C=C/c2ccccc2)c(O)c1` yielded an IC50 of more than 20 µM. `COc1cc(O)c(C(=O)/C=C/c2ccccc2)cc1CN(C)C` displayed an IC50 of more than 20 µM. On to `CN(C)Cc1c(O)cc(O)c2c(=O)c(O)c(-c3ccc(O)c(O)c3)oc12`, for which half-maximal inhibition (IC50) was put at 15.7 µM. Turning to `O=c1cc(-c2ccccc2)oc2c(CN3CCCC3)c(O)c(O)c(O)c12`, half-maximal inhibition (IC50) was put at 1.22 µM. With `O=c1cc(-c2ccccc2)oc2c(CN3CCCCC3)c(O)c(O)c(O)c12` the figure was 1.28 µM; with `COc1cc(O)c(C(=O)/C=C/c2ccccc2)cc1CN1CCCCC1`, more than 20 µM. As for `CN(C)Cc1c(O)c(O)c(O)c2c(=O)cc(-c3ccccc3)oc12`, the IC50 was 1.05 µM. The same measure for `O=c1cc(-c2ccccc2)oc2c(CN3CCSCC3)c(O)c(O)c(O)c12`: 0.38 µM. Consider `O=c1c(O)c(-c2ccc(O)c(O)c2)oc2c(CN3CCCCC3)c(O)cc(O)c12`, for which the IC50 turned out to be 18.7 µM. For the compound `O=c1c(O)c(-c2ccc(O)c(O)c2)oc2c(CN3CCOCC3)c(O)cc(O)c12`, the IC50 is more than 20 µM. The same measure for `CN1CCN(Cc2c(O)c(O)c(O)c3c(=O)cc(-c4ccccc4)oc23)CC1`: 0.27 µM.

Take `COc1cc(O)c(C(=O)/C=C/c2ccccc2)cc1CN1CCOCC1`: the IC50 is more than 20 µM.

Take `COc1cc(O)c(C(=O)/C=C/c2ccccc2)cc1CN1CCN(C)CC1`: the IC50 was more than 20 µM. In turn, `COc1cc(O)c(C(=O)/C=C/c2ccccc2)cc1CN1CCCC1` returned a half-maximal inhibitory concentration (IC50) of more than 20 µM. As for `COc1cc(O)c(C(=O)/C=C/c2ccccc2)cc1CN1CCSCC1`, the IC50 was more than 20 µM. For the compound `O=c1cc(-c2ccccc2)oc2c(CN3CCOCC3)c(O)c(O)c(O)c12`, the IC50 amounted to 0.28 µM. The compound `CN1CCN(Cc2c(O)cc(O)c3c(=O)c(O)c(-c4ccc(O)c(O)c4)oc23)CC1` gave an IC50 of more than 20 µM. The compound `O=c1cc(-c2ccccc2)oc2cc(O)c(O)c(O)c12` [BAICALEIN] yielded an IC50 of 6.53 µM. This counts as single-digit micromolar.

For `COC(=O)[C@H]1O[C@@H](Oc2cc3oc(-c4ccccc4)cc(=O)c3c(O)c2O)[C@H](O)[C@H](O)[C@@H]1O` [BAICALIN METHYLATE], the concentration for half-maximal inhibition (IC50) was determined as 11.6 µM.

For `O=C(O)[C@H]1O[C@@H](Oc2cc3oc(-c4ccccc4)cc(=O)c3c(O)c2O)[C@H](O)[C@@H](O)[C@@H]1O` [BAICALIN], the IC50 amounted to 14.4 µM.

As for `O=c1c(O)c(-c2ccc(O)c(O)c2)oc2cc(O)cc(O)c12` [QUERCETIN], the half-inhibitory concentration (IC50) was more than 20 µM.
